Numbers after ± are expanded uncertainties.
Conditions: Liquid, Ebulliometric method (Recirculating still)

CCNCCN [N-ethylethane-1,2-diamine]
vapor or sublimation pressure (358 K): 20.8 ± 1.2 kPa
vapor or sublimation pressure (366.5 K): 29.6 ± 1.2 kPa
vapor or sublimation pressure (374.1 K): 39.5 ± 1.2 kPa
vapor or sublimation pressure (380.3 K): 49.7 ± 1.3 kPa
vapor or sublimation pressure (390.2 K): 69.5 ± 1.3 kPa
vapor or sublimation pressure (398.3 K): 90.2 ± 1.3 kPa
vapor or sublimation pressure (401.9 K): 101.2 ± 3.5 kPa
vapor or sublimation pressure (402.2 K): 101.5 ± 1.3 kPa

From the NIST ThermoML archive (doi:10.1021/je300819g)
